Like-named read-outs stand apart in the source and are kept apart here.
Tests used:
[1] = biological target: T1, c-Met (baculovirus expressed human c-Met kinase domain P948-S1343) (Homo sapiens, UniProt P08581); experiment: c-Met Luciferase-Coupled Chemiluminescent Kinase assay (LCCA); type: biochemical;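 also: kinase activity read as percent ATP left after reaction, by luciferase-luciferin chemiluminescence, with 1 µM ATP and 1 µM poly-EY substrate, 2 h at ambient temperature, 10-point dose-response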
T1 construct: human c-Met kinase domain P948-S1343; host or cells: baculovirus expression
T1 sequence (P08581 1011-1343 limits assumed): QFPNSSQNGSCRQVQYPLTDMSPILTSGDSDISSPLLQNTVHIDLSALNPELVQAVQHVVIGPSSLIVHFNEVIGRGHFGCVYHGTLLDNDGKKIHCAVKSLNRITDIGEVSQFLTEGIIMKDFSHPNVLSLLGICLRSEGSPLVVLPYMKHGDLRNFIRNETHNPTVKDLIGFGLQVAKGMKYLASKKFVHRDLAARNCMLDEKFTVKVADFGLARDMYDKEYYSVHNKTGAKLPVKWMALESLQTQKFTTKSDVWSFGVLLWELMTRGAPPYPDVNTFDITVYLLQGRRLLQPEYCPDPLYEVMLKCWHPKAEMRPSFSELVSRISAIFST
Protocol: Kinase activity and compound inhibition are investigated using one or more of the three assay formats described below. The ATP concentrations for each assay are selected to be close to the Michaelis-Menten constant (KM) for each individual kinase. Dose-response experiments are performed at 10 different inhibitor concentrations in a 384-well plate format. […] Typically H is close to unity. c-Met Assay
c-Met biochemical activity was assessed using a Luciferase-Coupled Chemiluminescent Kinase assay (LCCA) format as described above. Again, kinase activity was measured as the percent ATP remaining following the kinase reaction. Remaining ATP was detected by luciferase-luciferin-coupled chemiluminescence. Specifically, the reaction was initiated by mixing test compounds, 1 μM ATP, 1 μM poly-EY and 10 nM c-Met (baculovirus expressed human c-Met kinase domain P948-S1343) in a 20 uL assay buffer (20 mM Tris-HCL pH7.5, 10 mM MgCl2, 0.02% Triton X-100, 100 mM DTT, 2 mM MnCu2). The mixture is incubated at ambient temperature for 2 hours after which 20 uL luciferase-luciferin mix is added and the chemiluminescent signal read using a Wallac Victor^2 reader.

[2] = biological target: T2, KDR (baculovirus expressed human KDR kinase domain D807-V1356) (Homo sapiens, UniProt P35968); experiment: biochemical;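 also: Luciferase-coupled chemiluminescent kinase assay, activity read as percent ATP left after 4 h reaction at ambient temperature, ATP near KM, 10-point dose-response in 384-well plates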
T2 construct: human KDR kinase domain D807-V1356; host or cells: baculovirus expression
T2 sequence (P35968 807-1356): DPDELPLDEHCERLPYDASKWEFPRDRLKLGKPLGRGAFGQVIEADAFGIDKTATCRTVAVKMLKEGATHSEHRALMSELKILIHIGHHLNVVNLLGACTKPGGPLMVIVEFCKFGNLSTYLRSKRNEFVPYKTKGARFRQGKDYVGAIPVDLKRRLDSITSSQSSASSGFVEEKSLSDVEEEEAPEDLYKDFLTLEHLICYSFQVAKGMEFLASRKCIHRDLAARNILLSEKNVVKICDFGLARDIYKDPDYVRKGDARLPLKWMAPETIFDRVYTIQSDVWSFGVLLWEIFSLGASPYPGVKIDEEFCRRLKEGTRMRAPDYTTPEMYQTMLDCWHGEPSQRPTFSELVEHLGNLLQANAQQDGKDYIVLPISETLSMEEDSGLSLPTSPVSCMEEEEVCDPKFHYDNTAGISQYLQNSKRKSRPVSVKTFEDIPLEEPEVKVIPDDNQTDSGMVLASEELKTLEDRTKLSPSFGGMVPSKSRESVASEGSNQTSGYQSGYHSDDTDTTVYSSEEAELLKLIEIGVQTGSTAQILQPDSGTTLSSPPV

[3] = biological target: T3, Flt-4 (baculovirus expressed human Flt-4 kinase domain D725-R1298) (Homo sapiens, UniProt P35916); experiment: flt-4 Alphascreen Tyrosine Kinase assay; type: biochemical; details: read-out: flt4 IC50;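 also: AlphaScreen chemiluminescence read-out of biotinylated poly(Glu,Tyr) 4:1 phosphorylation via streptavidin donor and PY100 anti-phosphotyrosine acceptor beads, ATP near KM, 1 hr kinase reaction, 10-point dose-response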
T3 construct: human Flt-4 kinase domain D725-R1298; host or cells: baculovirus expression
T3 sequence (P35916 725-1298 isoform P35916-1): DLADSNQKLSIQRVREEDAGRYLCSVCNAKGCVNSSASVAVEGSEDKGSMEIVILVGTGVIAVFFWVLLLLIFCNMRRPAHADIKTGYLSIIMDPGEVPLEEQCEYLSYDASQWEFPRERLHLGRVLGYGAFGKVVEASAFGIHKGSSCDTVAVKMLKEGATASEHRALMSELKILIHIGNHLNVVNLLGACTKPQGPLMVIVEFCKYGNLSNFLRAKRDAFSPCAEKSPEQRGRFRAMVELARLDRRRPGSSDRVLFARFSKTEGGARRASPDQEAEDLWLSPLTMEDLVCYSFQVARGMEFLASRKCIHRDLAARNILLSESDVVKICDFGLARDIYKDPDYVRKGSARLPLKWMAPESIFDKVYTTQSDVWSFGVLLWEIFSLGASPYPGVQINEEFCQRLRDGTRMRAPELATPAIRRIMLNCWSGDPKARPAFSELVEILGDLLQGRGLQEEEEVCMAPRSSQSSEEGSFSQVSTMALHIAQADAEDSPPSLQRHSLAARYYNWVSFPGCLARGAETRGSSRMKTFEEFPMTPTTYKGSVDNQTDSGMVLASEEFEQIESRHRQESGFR

[4] = biological target: T4, Flt-3 (baculovirus expressed human Flt-3 kinase domain R571-S993) (Homo sapiens, UniProt P36888); experiment: biochemical; details: read-out: flt3 IC50;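 also: Luciferase-coupled chemiluminescent kinase assay, activity read as percent ATP left after a 3 h reaction at room temperature, ATP near KM, 10-point dose-response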
T4 construct: human Flt-3 kinase domain R571-S993; host or cells: baculovirus expression
T4 sequence (P36888 571-993): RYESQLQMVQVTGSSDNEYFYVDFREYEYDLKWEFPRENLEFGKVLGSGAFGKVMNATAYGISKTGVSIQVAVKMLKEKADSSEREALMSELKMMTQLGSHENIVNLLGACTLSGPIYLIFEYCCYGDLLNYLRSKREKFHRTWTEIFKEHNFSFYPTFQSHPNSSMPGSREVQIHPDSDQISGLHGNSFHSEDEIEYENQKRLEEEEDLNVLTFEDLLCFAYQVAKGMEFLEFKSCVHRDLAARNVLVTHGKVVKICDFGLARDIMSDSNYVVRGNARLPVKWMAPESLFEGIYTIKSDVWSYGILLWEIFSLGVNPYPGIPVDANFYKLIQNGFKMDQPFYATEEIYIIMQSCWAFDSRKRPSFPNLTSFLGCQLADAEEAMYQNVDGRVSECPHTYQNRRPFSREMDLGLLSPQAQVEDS

c-Kit kinase = c-Kit kinase (Homo sapiens, UniProt P10721); experiment: c-Kit AlphaScreen kinase assay; type: biochemical;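 also: c-Kit kinase phosphorylating biotinylated poly(Glu,Tyr), ATP near its KM, 1 h reaction at ambient temperature, AlphaScreen chemiluminescence with streptavidin donor and anti-phosphotyrosine acceptor beads, 10-point inhibitor titration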
c-Kit kinase, sequence (P10721 26-976): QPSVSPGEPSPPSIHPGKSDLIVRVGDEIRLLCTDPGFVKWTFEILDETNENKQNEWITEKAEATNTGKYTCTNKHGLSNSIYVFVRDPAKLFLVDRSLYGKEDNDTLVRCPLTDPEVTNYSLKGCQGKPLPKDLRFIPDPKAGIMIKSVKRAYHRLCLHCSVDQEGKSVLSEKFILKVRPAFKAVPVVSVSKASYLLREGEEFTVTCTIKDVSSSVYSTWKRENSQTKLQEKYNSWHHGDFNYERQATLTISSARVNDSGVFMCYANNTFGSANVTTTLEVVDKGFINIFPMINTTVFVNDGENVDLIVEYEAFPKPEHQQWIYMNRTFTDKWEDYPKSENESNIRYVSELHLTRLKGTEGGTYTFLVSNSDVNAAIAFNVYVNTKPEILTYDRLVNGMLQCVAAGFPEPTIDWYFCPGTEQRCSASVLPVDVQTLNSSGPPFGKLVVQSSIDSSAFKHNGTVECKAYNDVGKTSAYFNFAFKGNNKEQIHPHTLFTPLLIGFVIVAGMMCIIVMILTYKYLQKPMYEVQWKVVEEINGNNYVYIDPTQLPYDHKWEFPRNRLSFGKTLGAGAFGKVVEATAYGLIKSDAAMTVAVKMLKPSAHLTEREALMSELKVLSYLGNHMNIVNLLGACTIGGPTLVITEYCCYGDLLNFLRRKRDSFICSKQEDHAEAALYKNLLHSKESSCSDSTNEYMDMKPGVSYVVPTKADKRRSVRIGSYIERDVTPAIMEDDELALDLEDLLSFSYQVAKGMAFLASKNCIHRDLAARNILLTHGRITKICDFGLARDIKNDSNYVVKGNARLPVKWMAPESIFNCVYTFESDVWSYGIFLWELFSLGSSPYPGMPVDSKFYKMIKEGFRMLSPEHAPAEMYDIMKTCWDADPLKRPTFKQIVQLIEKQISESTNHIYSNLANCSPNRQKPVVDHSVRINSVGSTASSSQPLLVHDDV

[5] = Table 4, inhibition as IC50 class

Row | SMILES | IC50 [1] [nM] | IC50 [2] [nM] | IC50 [3] [nM] | IC50 [4] [nM] | IC50 (c-Kit kinase) [nM] | IC50 [1, 5] [nM] | IC50 [2, 5] [nM] | IC50 [3, 5] [nM] | IC50 [4, 5] [nM] | IC50 (c-Kit kinase; [5]) [nM]
1 | COc1cc2c(Oc3ccc(NC(=O)C(=O)NC(C)C)cc3F)ccnc2cc1OCC1CCNCC1 [Example 294, N-[3-fluoro-4-({6-(methyloxy)-7-[(piperidin-4-ylmethyl)oxy]quinolin-4-yl}oxy)phenyl]-N′-(1-methylethyl)ethanediamide] | < 50 | 50 to 500 | 500 to 5000 | 50 to 500 | 50 to 500 | – | – | – | – | –
2 | COc1cc2c(Oc3ccc(NC(=O)C(=O)N4CCC(Cc5ccccc5)CC4)cc3F)ccnc2cc1OCC1CCNCC1 [Example 287, N-[3-fluoro-4-({6-(methyloxy)-7-[(piperidin-4-ylmethyl)oxy]quinolin-4-yl}oxy)phenyl]-2-oxo-2-[4-(phenylmethyl)piperidin-1-yl]acetamide] | < 50 | < 50 | 50 to 500 | < 50 | 50 to 500 | – | – | – | – | –
3 | COc1cc2c(Oc3ccc(NC(=O)C(=O)NCc4cc(F)cc(F)c4)cc3F)ccnc2cc1OCC1CCNCC1 [Example 233, N-[(3,5-difluorophenyl)methyl]-N′-[3-fluoro-4-({6-(methyloxy)-7-[(piperidin-4-ylmethyl)oxy]quinolin-4-yl}oxy)phenyl]ethanediamide] | – | – | – | – | – | < 50 | < 50 | < 50 | 50 to 500 | < 50
4 | COc1cc2c(Oc3ccc(NC(=O)C(=O)NCc4cc(F)cc(C(F)(F)F)c4)cc3F)ccnc2cc1OCC1CCNCC1 [Example 232, N-[3-fluoro-4-({6-(methyloxy)-7-[(piperidin-4-ylmethyl)oxy]quinolin-4-yl}oxy)phenyl]-N′-{[3-fluoro-5-(trifluoromethyl)phenyl]methyl}ethanediamide] | – | – | – | – | – | < 50 | < 50 | 50 to 500 | < 50 | 50 to 500
5 | COc1cc2c(Oc3ccc(NC(=O)C(=O)NC(C)c4ccc(Br)cc4)cc3F)ccnc2cc1OCC1CCNCC1 (stereo not shown) [Example 221, N-[1-(4-bromophenyl)ethyl]-N′-[3-fluoro-4-({6-(methyloxy)-7-[(piperidin-4-ylmethyl)oxy]quinolin-4-yl}oxy)phenyl]ethanediamide] | – | – | – | – | – | < 50 | 50 to 500 | 50 to 500 | 50 to 500 | 50 to 500
6 | COc1cc2c(Oc3ccc(NC(=O)C(=O)NCc4ccccn4)cc3F)ccnc2cc1OCC1CCNCC1 [Example 274, N-[3-fluoro-4-({6-(methyloxy)-7-[(piperidin-4-ylmethyl)oxy]quinolin-4-yl}oxy)phenyl]-N′-(pyridin-2-ylmethyl)ethanediamide] | – | – | – | – | – | < 50 | 50 to 500 | 50 to 500 | 50 to 500 | 50 to 500
7 | CCCCc1ccc(CNC(=O)C(=O)Nc2ccc(Oc3ccnc4cc(OCC5CCNCC5)c(OC)cc34)c(F)c2)cc1 [Example 270, N-[(4-butylphenyl)methyl]-N′-[3-fluoro-4-({6-(methyloxy)-7-[(piperidin-4-ylmethyl)oxy]quinolin-4-yl}oxy)phenyl]ethanediamide] | – | – | – | – | – | < 50 | 50 to 500 | 50 to 500 | 50 to 500 | 50 to 500
8 | COc1cc2c(Oc3ccc(NC(=O)C(=O)NCC4CC4)cc3F)ccnc2cc1OCC1CCNCC1 [Example 297, N-(cyclopropylmethyl)-N′-[3-fluoro-4-({6-(methyloxy)-7-[(piperidin-4-ylmethyl)oxy]quinolin-4-yl}oxy)phenyl]ethanediamide] | < 50 | 50 to 500 | 50 to 500 | 50 to 500 | 50 to 500 | – | – | – | – | –
9 | COc1cc2nccc(Oc3nc(C)c(NC(=O)C4(C(=O)Nc5ccc(F)cc5)CC4)cc3Cl)c2cc1OC [Example 320, N-(6-{[6,7-bis(methyloxy)quinolin-4-yl]oxy}-5-chloro-2-methylpyridin-3-yl)-N′-(4-fluorophenyl)cyclopropane-1,1-dicarboxamide] | < 50 | 500 to 5000 | 500 to 5000 | 50 to 500 | 500 to 5000 | – | – | – | – | –
10 | COc1cc2c(Oc3ccc(NC(=O)C(=O)Nc4ccccc4)cc3F)ccnc2cc1OCC1CCN(C)CC1 [Example 259, N-{3-fluoro-4-[(6-(methyloxy)-7-{[(1-methylpiperidin-4-yl)methyl]oxy}quinolin-4-yl)oxy]phenyl}-N′-phenylethanediamide] | – | – | – | – | – | < 50 | 50 to 500 | 50 to 500 | 500 to 5000 | 500 to 5000
11 | COc1cc2c(Oc3ccc(NC(=O)C4(C(=O)Nc5ccc(F)cc5)CC4)cc3F)ccnc2cc1OCCCN1CCCCC1 [Example 313, N-[3-fluoro-4-({6-(methyloxy)-7-[(3-piperidin-1-ylpropyl)oxy]quinolin-4-yl}oxy)phenyl]-N′-(4-fluorophenyl)cyclopropane-1,1-dicarboxamide] | < 50 | < 50 | < 50 | < 50 | < 50 | – | – | – | – | –
12 | COCCNC(=O)C(=O)Nc1ccc(Oc2ccnc3cc(OCC4CCNCC4)c(OC)cc23)c(F)c1 [Example 296, N-[3-fluoro-4-({6-(methyloxy)-7-[(piperidin-4-ylmethyl)oxy]quinolin-4-yl}oxy)phenyl]-N′-[2-(methyloxy)ethyl]ethanediamide] | 50 to 500 | 50 to 500 | 500 to 5000 | 50 to 500 | 50 to 500 | – | – | – | – | –
13 | COc1cc2c(Oc3ccc(NC(=O)C(=O)NCc4cccc(OC(F)(F)F)c4)cc3F)ccnc2cc1OCC1CCNCC1 [Example 240, N-[3-fluoro-4-({6-(methyloxy)-7-[(piperidin-4-ylmethyl)oxy]quinolin-4-yl}oxy)phenyl]-N′-({3-[(trifluoromethyl)oxy]phenyl}methyl)ethanediamide] | – | – | – | – | – | < 50 | < 50 | < 50 | < 50 | < 50
14 | CCN1CCC(COc2cc3nccc(Oc4ccc(NC(=O)C(=O)N5CCOC(c6ccccc6)C5)cc4F)c3cc2OC)CC1 (stereo not shown) [Example 231, N-(4-{[7-{[(1-ethylpiperidin-4-yl)methyl]oxy}-6-(methyloxy)quinolin-4-yl]oxy}-3-fluorophenyl)-2-oxo-2-(2-phenylmorpholin-4-yl)acetamide] | – | – | – | – | – | < 50 | 50 to 500 | 50 to 500 | 50 to 500 | 50 to 500
15 | COc1cc2c(Oc3ccc(NC(=O)C(=O)NCCc4ccc(N)cc4)cc3F)ccnc2cc1OCC1CCNCC1 [Example 286, N-[2-(4-aminophenyl)ethyl]-N′-[3-fluoro-4-({6-(methyloxy)-7-[(piperidin-4-ylmethyl)oxy]quinolin-4-yl}oxy)phenyl]ethanediamide] | < 50 | 50 to 500 | 50 to 500 | 50 to 500 | 50 to 500 | – | – | – | – | –
16 | COc1cc2c(Oc3ncc(NC(=O)C4(C(=O)Nc5ccc(F)cc5)CC4)cc3Cl)ccnc2cc1OCc1ccccc1 [Example 309, N-[5-chloro-6-({6-(methyloxy)-7-[(phenylmethyl)oxy]quinolin-4-yl}oxy)pyridin-3-yl]-N′-(4-fluorophenyl)cyclopropane-1,1-dicarboxamide] | < 50 | 500 to 5000 | 500 to 5000 | 50 to 500 | 500 to 5000 | – | – | – | – | –
17 | COc1cc2nccc(Oc3ncc(NC(=O)C(C)(C)C(=O)Nc4ccc(F)cc4)cc3Cl)c2cc1OC [Example 292, N-(6-{[6,7-bis(methyloxy)quinolin-4-yl]oxy}-5-chloropyridin-3-yl)-N′-(4-fluorophenyl)-2,2-dimethylpropanediamide] | 50 to 500 | 50 to 500 | 50 to 500 | < 50 | 50 to 500 | – | – | – | – | –
18 | COc1cc2c(Oc3ccc(NC(=O)C(=O)NCc4cc(C(F)(F)F)ccc4F)cc3F)ccnc2cc1OCC1CCNCC1 [Example 281, N-[3-fluoro-4-({6-(methyloxy)-7-[(piperidin-4-ylmethyl)oxy]quinolin-4-yl}oxy)phenyl]-N′-{[2-fluoro-5-(trifluoromethyl)phenyl]methyl}ethanediamide] | – | – | – | – | – | < 50 | < 50 | 50 to 500 | < 50 | 50 to 500
19 | CCN(CC)CCOc1cc2nccc(Oc3ccc(NC(=O)C4(C(=O)Nc5ccc(F)cc5)CCC4)cc3F)c2cc1OC [Example 307, N-(4-{[7-{[2-(diethylamino)ethyl]oxy}-6-(methyloxy)quinolin-4-yl]oxy}-3-fluorophenyl)-N′-(4-fluorophenyl)cyclobutane-1,1-dicarboxamide] | < 50 | < 50 | < 50 | 50 to 500 | < 50 | – | – | – | – | –
20 | COc1cc2c(Oc3ccc(NC(=O)C(=O)Nc4ccc(F)c(Cl)c4)cc3F)ccnc2cc1OCC1CCNCC1 [Example 261, N-(3-chloro-4-fluorophenyl)-N′-[3-fluoro-4-({6-(methyloxy)-7-[(piperidin-4-ylmethyl)oxy]quinolin-4-yl}oxy)phenyl]ethanediamide] | – | – | – | – | – | < 50 | 500 to 5000 | 50 to 500 | 50 to 500 | 500 to 5000

— patent US8476298B2 (Exelixis, Inc., priority 2003, dated 2013)
